# Where two headings read alike, the source gives them in different places.
# Experiments:
# [1] = tested on: HEK-293 cells; test: cAMP production in untransfected HEK-293 cells (specificity control); format: cell-based; conditions: Homo sapiens, HEK293, read-out: cAMP production: no elevation up to
# Description: (§1) HEK-293 cells were obtained from ATCC and a clonal HEK-293 line overexpressing mouse TGR5 was prepared. Both were maintained in Dulbecco’s modified Eagle’s medium (DMEM) containing 10% fetal bovine serum (FBS) and penicillin /streptomycin. Mouse STC-1 cells were obtained from ATCC under agreement with the Cold Spring Harbor Laboratories and maintained in DMEM containing 10% FBS and penicillin /streptomycin. NCI-H716 cells were obtained from ATCC and were maintained in RPMI-1640 with 10% FBS. NCI-H716 cells were cultured in 96 well plate coated with Matrigel (BD). After 72 hours, cAMP production stimulated with TGR5 agonists was measured using HTRF cAMP assay kit (CISBIO). The level of cAMP in suspensions of STC-1 cells stimulated with increasing concentrations of TGR5 agonists was also determined. […] The production of GLP-1 was determined using a GLP-1 Assay (7–36) amide kit (Mesoscale Discovery) following the manufacturer’s instructions. […]
# (§2) Compound 18 is a novel small molecule agonist of TGR5 developed by Eli Lilly and Company (MW = 508.62, Fig 2A). […] In order to determine potency of compound 18 for the mouse and human TGR5 receptor in cells with endogenous levels of receptor, we measured compound 18-stimulated cAMP production and GLP-1 secretion in both mouse (STC-1) and human (NCI-H716) enteroendocrine cell lines, that we have shown to express TGR5 natively (Fig 1). […]
# [2] = tested on: STC-1 cells; test: GLP-1 secretion in STC-1 enteroendocrine cells; format: cell-based; conditions: Mus musculus
# Description: as §1, §2
# [3] = target: T1, human TGR5 receptor (Homo sapiens, UniProt Q8TDU6); test: cAMP production in NCI-H716 enteroendocrine cells (endogenous TGR5); format: cell-based
# T1 construct: in cells with endogenous levels of receptor; host or cells: NCI-H716 (human enteroendocrine)
# T1 sequence (Q8TDU6 1-330): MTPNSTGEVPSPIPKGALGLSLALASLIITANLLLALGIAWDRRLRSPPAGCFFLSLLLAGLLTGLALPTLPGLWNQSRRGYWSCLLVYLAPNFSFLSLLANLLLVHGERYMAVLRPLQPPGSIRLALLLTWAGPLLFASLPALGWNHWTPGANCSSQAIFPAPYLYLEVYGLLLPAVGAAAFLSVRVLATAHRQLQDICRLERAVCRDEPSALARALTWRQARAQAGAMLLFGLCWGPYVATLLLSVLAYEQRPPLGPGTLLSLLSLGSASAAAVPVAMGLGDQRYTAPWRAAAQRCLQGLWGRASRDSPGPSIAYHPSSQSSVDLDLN
# Description: as §1, §2
# [4] = target: T2, GPR120 (Homo sapiens, UniProt Q5NUL3); test: Selectivity: enteroendocrine GPCR GPR120
# T2 sequence (Q5NUL3 1-361): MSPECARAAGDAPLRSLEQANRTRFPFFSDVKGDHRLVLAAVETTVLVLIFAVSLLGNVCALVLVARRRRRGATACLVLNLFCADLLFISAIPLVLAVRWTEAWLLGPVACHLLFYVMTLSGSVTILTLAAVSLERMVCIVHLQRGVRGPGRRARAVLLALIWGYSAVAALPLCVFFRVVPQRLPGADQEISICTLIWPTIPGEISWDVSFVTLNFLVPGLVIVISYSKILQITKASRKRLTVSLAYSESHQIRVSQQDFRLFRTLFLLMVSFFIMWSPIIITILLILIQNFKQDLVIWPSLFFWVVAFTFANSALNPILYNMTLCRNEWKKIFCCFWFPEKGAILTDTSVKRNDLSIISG
# [5] = tested on: C57BL/6 mice; test: Oral glucose tolerance test, glucose only; conditions: oral 1-100 mg/kg tested, glucose 3 g/kg 15 min after compound
# Description: For measurement of glucose only, overnight-fasted C57BL/6 mice in a normal light cycle were orally dosed with vehicle or compound, followed by an oral bolus of 3 g/kg glucose at 15 minutes post compound. At 0, 20, 40, 60, and 120 minutes post glucose dose, blood glucose was assessed via glucometers. Resulting raw data was used to generate AUCs. […] At 0, 15, 30, 60, and 120 minutes post glucose dose, blood glucose was assessed via glucometers. Resulting raw data was used to generate AUCs.
# [6] = tested on: Tgr5 KO mice; test: Three-day study on GLP-1, PYY and bile weight in Tgr5 KO mice; conditions: 100 mg/kg oral BID 3 days, 30 min after last dose
# Description: C57BL/6 mice, Tgr5 KO mice, or their wild-type littermate controls were orally dosed with vehicle or compounds twice per day for 3 days, with overnight fasting performed on the evening of day 2. On the morning of day 3, animals were dosed orally with compounds and then euthanized by CO2 asphyxiation at 30 minutes after the fifth dose. Plasma was collected for analysis of GLP-1 (X-36) amide as mentioned above, followed immediately by incision into the abdominal cavity to remove and weigh bile from the gallbladder.
compound,measurement,setting,value
CC(=O)N1CCC(C(C)N(C(=O)COc2cccc3sc4nc(C)cn4c23)c2ccc(F)cc2)CC1 (stereo not drawn) [compound 18],EC50,[1],> 30000 nM
same,EC50,"[2]; read-out: EC50, GLP-1 secretion",307 nM
same,EC50,"[2]; unit inferred, x-axis in nM, read-out: EC50 STC-1 (Fig 2D inset, GLP-1 secretion)",307 nM
same,EC50,[3],3100 nM
same,EC50,[4],> 125000 nM
same,doses that reduce glucose excursions in OGTT,[5],≥ 30 mg/kg
same,GLP-1,[6],no detectable increase
same,PYY,[6],no detectable increase
same,bile weight,[6],no detectable increase

# Reference: article PMC4551797 (PLoS ONE, 2015)
